Data set [1] in a line: Plasma pharmacokinetics (LC-MS/MS, noncompartmental; GMR by linear mixed-effects model).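 On all read-outs here: participants at one US clinical research site, randomized 1:1:1 to a single study part, with 90% CIs from a mixed-effects model on log-transformed PK parameters.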 The note with it: for AUC / Cmax / half-life / Tmax: human, plasma, oral; for AUC: AUC(TAU); for half-life: T1/2, arithmetic mean [n] (SD); for Increase of AUC(TAU) / Increase of Cmax: Treatment I (with milvexian) vs Treatment H (aspirin alone).
Method: (§2) The study (ClinicalTrials.gov Identifier: NCT03698513) was conducted at 1 clinical research center in the United States. […] Participants underwent screening evaluations to determine eligibility within 35 days of study drug administration, and eligible participants were randomly assigned 1:1:1 to a single part of the study.
(§3) All statistical analyses and calculations were performed using SAS® software (SAS Institute, Inc., Cary, North Carolina; version 9.3). All safety and plasma PK/PD data were summarized using descriptive statistics. Descriptive summaries were presented for continuous variables using number of subjects (N), mean, SD; median, minimum, and maximum. […] CIs were constructed using a linear mixed-effects model with treatment as a fixed effect and measurements within participants as repeated measures fitted to the log-transformed PK parameters.
For data set [2] the following is noted: in vivo.
Method: as §2, §3
For data set [3], the system named is arachidonic acid (AA)-induced platelet aggregation. The data set is described as follows: AA (1 mM)-induced platelet aggregation, light transmission aggregometry. The data set is classed as in vivo, human. The note with it: drug alone (Treatment E or H). The protocol: (§1) PD assessments were performed on Days 1 (≤ 24 h) and 5 (≤ 72 h) of each period (Supplementary Table 8); assessments included aPTT[18], FXIc[18], and bleeding time (assessed according to the PPD® Laboratories [Austin, TX] procedure where a blood pressure cuff, situated above the incision site, provided pressure at 40 mmHg and blood from the incision was wicked with filter paper every 30 s until cessation to record bleeding time). In addition, AA (1 mM), ADP) (20 µM)-, and collagen (5 μg/ml)-induced platelet aggregation assays were performed using light transmission aggregometry (PPD® Laboratories) and performed on Days 1 and 5 (≤ 24 h) for only Period 1.

Data set [4] concerns healthy participants. The data set is described as follows: Adverse events and bleeding-related AEs by treatment, phase I DDI study.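 Further: counts from medical review of adverse event and bleeding-related adverse event reports, collected at selected times across the dosing interval, single US site, randomised 1:1:1 to one study part.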
Method: Participants underwent screening evaluations to determine eligibility within 35 days of study drug administration, and eligible participants were randomly assigned 1:1:1 to a single part of the study.
Safety assessments were performed at selected times throughout the dosing interval (Supplementary Table 7). The assessments were based on medical review of AE and bleeding-related AE reports, and the results of vital sign measurements, ECG measurements, physical examinations, and clinical laboratory tests.
The subject of data set [5] is platelet aggregation induced by collagen. Nature of the data set: Collagen (5 μg/ml)-induced platelet aggregation, light transmission aggregometry. It counts as in vivo, human. The note with it: drug alone (Treatment E or H). The protocol: as §1
For data set [6], the system named is platelet aggregation induced by adenosine diphosphate (ADP). The data set is described as follows: ADP (20 µM)-induced platelet aggregation, light transmission aggregometry. It counts as in vivo, human. The settings on record: drug alone (Treatment E or H). The protocol:
as §1

Where [7] appears, read: geometric mean [n] (90% CI), Day 5, Treatment C (placebo + aspirin + clopidogrel), Part 1.
[8] abbreviates: geometric mean [n] (90% CI), Day 5, Treatment H (placebo + aspirin), Part 3.
Where [9] appears, read: geometric mean (90% CI), Day 1, Treatment A (milvexian + aspirin + clopidogrel), Part 1.
Setting [10] is: geometric mean (90% CI), Day 1, Treatment C (placebo + aspirin + clopidogrel), Part 1.
Where [11] appears, read: geometric mean (90% CI), Day 1, Treatment H (placebo + aspirin), Part 3.
Setting [12] is: geometric mean (90% CI), Day 1, Treatment I (milvexian + aspirin), Part 3.
Setting [13] is: median (range), Day 1, Treatment A (milvexian + aspirin + clopidogrel), Part 1.
Where [14] appears, read: median (range), Day 1, Treatment C (placebo + aspirin + clopidogrel), Part 1.
The mark [15] stands for this setting: median (range), Day 1, Treatment H (placebo + aspirin), Part 3.
[16] abbreviates: median (range), Day 1, Treatment I (milvexian + aspirin), Part 3.
Setting [17] is: median [n] (range), Day 5, Treatment C (placebo + aspirin + clopidogrel), Part 1.
The mark [18] stands for this setting: median [n] (range), Day 5, Treatment H (placebo + aspirin), Part 3.

SMILES strings stand for the structures. Marks after values point to notes of the source that are not given here.

A word on the half-life: it is how long it takes for the measured level to halve.

Take `O=C(O)c1ccccc1O` [Salicylic acid, salicylic acid]: the AUC in data set [1] (geometric mean [n] (90% CI), Day 1, Treatment A (milvexian + aspirin + clopidogrel), Part 1) was determined as 92700 ng·h/mL; in data set [1] (geometric mean [n] (90% CI), Day 1, Treatment C (placebo + aspirin + clopidogrel), Part 1), 93500 ng·h/mL; in data set [1] (geometric mean [n] (90% CI), Day 1, Treatment H (placebo + aspirin), Part 3) it was 93300 ng·h/mL; in data set [1] (geometric mean [n] (90% CI), Day 1, Treatment I (milvexian + aspirin), Part 3), 93600 ng·h/mL; in data set [1] (setting [7]) it was 92000 ng·h/mL; in data set [1] (setting [8]), 92500 ng·h/mL. In addition, the Cmax worked out at 17600 ng/mL in data set [1] (setting [9]); 18100 ng/mL in data set [1] (setting [10]); 16500 ng/mL in data set [1] (setting [11]); 16300 ng/mL in data set [1] (setting [12]); 17300 ng/mL in data set [1] (setting [7]); 16500 ng/mL in data set [1] (setting [8]). Besides, the half-life is 2.21 h in data set [1] (Day 1, Treatment A (milvexian + aspirin + clopidogrel), Part 1); 2.25 h in data set [1] (Day 1, Treatment C (placebo + aspirin + clopidogrel), Part 1); 2.4 h in data set [1] (Day 1, Treatment H (placebo + aspirin), Part 3); 2.39 h in data set [1] (Day 1, Treatment I (milvexian + aspirin), Part 3); 2.23 h in data set [1] (Day 5, Treatment C (placebo + aspirin + clopidogrel), Part 1); 2.39 h in data set [1] (Day 5, Treatment H (placebo + aspirin), Part 3). Further, the Tmax turned out to be 2 h in data set [1] (setting [13]); 2 h in data set [1] (setting [14]); 2.03 h in data set [1] (setting [15]); 2 h in data set [1] (setting [16]); 2.02 h in data set [1] (setting [17]); 3 h in data set [1] (setting [18]).

Regarding `O=C(O)[C@H](c1ccccc1Cl)N1CCc2sccc2C1` [Clopidogrel acid], the “Mean T1/2” value in data set [2] (human) is “approximately 8 h”. The “Reduction of Cmax” value in data set [2] was 14%.

Consider `CC(=O)Oc1ccccc1C(=O)O` [Aspirin, acetylsalicylic acid, reference compound], for which the “Inhibition of AA-induced aggregation compared with baseline” value in data set [3] is ~ 95%. The Anal fissure hemorrhage in data set [4] (Part 3 (Treatments G-I)) is on record as 0 n (%). In addition, in data set [4] (Part 3 (Treatments G-I)), the Contusion was 0 n (%). In data set [4] (Part 3 (Treatments G-I)), the Deaths was 0 n (%). In data set [4] (Part 3 (Treatments G-I)), the “Discontinuations due to AEs” value is listed as 0 n (%). The Epistaxis in data set [4] (Part 3 (Treatments G-I)) is on record as 1 (2.6)^‡‡ n (%). For the same compound, in data set [4] (Part 3 (Treatments G-I)), the Gingival bleeding was 0 n (%). Besides, the “Serious AEs” value in data set [4] (Part 3 (Treatments G-I)) is reported as 0 n (%). Besides, in data set [4] (Part 3 (Treatments G-I)), the “Total participants with an AE” value was 9 (23.7) n (%). Further, in data set [4] (Part 3 (Treatments G-I)), the “Total participants with bleeding event(s)” value is 1 (2.6) n (%). For the same compound, in data set [4] (Part 3 (Treatments G-I)), the “Vessel puncture site bruise” value was 0 n (%). Besides, the “Events of epistaxis reported by a participant” value in data set [4] (bleeding AE) came to 1 events. The “Percentage of participants reporting AEs” value in data set [4] (by treatment, all parts) amounted to 23.7%. The “Inhibition of collagen-induced aggregation compared with baseline” value in data set [5] is ~ 25%. In data set [6], the “Inhibition of ADP-induced aggregation compared with baseline” value was ~ 15%. Further, the “Increase of AUC(TAU)” value in data set [1] (Day 1) was found to be 24%; in data set [1] (Day 5), 19%. Moreover, the results for the “Increase of Cmax” value in data set [1] (Day 1) and in data set [1] (Day 5) were 40% and 33%, respectively. For the same compound, the Cmax in data set [1] (setting [9]) came out at 3050 ng/mL; in data set [1] (setting [10]), 2970 ng/mL; in data set [1] (setting [11]), 2450 ng/mL; in data set [1] (setting [12]) it was 3440 ng/mL; in data set [1] (setting [7]), 2890 ng/mL; in data set [1] (setting [8]), 2670 ng/mL. In addition, the Tmax in data set [1] (setting [13]) was 1 h; in data set [1] (setting [14]) it was 1 h; in data set [1] (setting [15]) it was 0.5 h; in data set [1] (setting [16]), 0.5 h; in data set [1] (setting [17]) it was 0.5 h; in data set [1] (setting [18]), 0.508 h.

Source of the values: PMC11258331 (Scientific Reports, 2024).
